Experiments:
[1] = test system: murine melanoma (B16FO line); assay: Quantitative study of tumoral fixation and biodistribution of the radiolabeled compound (ex-vivo gamma counting after IV injection); type: in vivo, C57B16 mice
[2] = test system: murine melanoma (B16FO line); assay: as above; type: in vivo, C57B16 mice; conditions: for Ratio (g)/Al TU/kidneys / Ratio (g)/Al Tu/Liver / Ratio (g)/Al Tu/Lungs / Ratio (g)/Al Tu/blood / Total Elimination (% del ‘Al’) / Tumor (g/Al %) / Total Elimination: Indium-111-radiolabeled, IV
Method: C57B16 mice bearing xenografts of murine melanoma (B16FO line) obtained by subcutaneous injection of 300 000 cells suspended in 100 μl of RPMI culture medium are injected subcutaneously in the back. The experiment is performed when the tumors are palpable. i.e. about 10 days […]. All the experiments (tumoral graft, injection and imaging) are carried out under isoflurane/oxygen (2.5%/2.5%) gas anesthesia.
Injection of 50 to 100 microliters of the radiolabeled solution, with a maximum activity of 20 MBQ, by direct intravenous injection (caudal vein). The activity of the empty syringe after injection+compress is also measured for calculating the actual activity injected (actual Ac injected=Ac normalized full syringe—normalized activity (empty syringe and compress). Normalization consists in calculating the theoretical activity at one and the same time chosen as reference (for example the time of injection). The measurements are performed on a regularly calibrated activity meter for medical use (Medisystem©).
Scintigraphic imaging is carried out using a dedicated small animal micro-5 imager SPECT-CT (BIOSCAN™). A planar scintigraphic image is obtained immediately after injection to verify absence of intracaudal stasis. If there is stasis, the mouse will be sacrificed at late times (24 or 48 h). Static scintigraphic images may be recorded at 2 h, 4 h, 24 h and 48 h (Imager micro-SPECT-CT BIOSCAN©).
This is done ex-vivo by gamma counting of the various samples, using a gamma well counter for medical use, regularly calibrated for the isotopes used (Tc-99m and In-111). The animals are euthanized according to the protocols allowed by the animal ethics committee at 2 h, 4 h, 24 h or 48 h. The main organs are removed (brain, spleen, kidneys, lungs, heart, alimentary canal, liver) as well as a fragment of skin, muscle, bone and a blood sample and the whole tumor. Each sample is weighed and its gamma activity is counted in a sample-changing well counter for dedicated medical use, calibrated for the radioelements used. The animal's carcass is also weighed after removing the tail; these samples are incinerated and their gamma activity is also measured. The gamma activity of the samples containing all the collected urine and the feces is also measured. The activity of each sample is normalized (relative to the time of injection), and the ratio of the activity of each sample is calculated relative to the total activity injected (=the sum of all of the activities measured except that of the tail), expressed in % per gram of tissue, for calculating the ratio of the activity present in the tumor relative to the main organs (liver, kidneys, lungs and blood). The percentage of the activity eliminated is calculated.
The mean values of all of the data for all of the mice whose data are exploitable are calculated, as well as after eliminating the animals with urinary excretion that is too quick (>50% at 2 h or 75% at 4 h, as well as the mice with tumors >2 g, as the existence of necrosis may distort the calculation of the ratio of fixation in the tumor).
The biodistribution data of the various dendrimer compounds coupled to the IFC01102 ligand (also called amine R) and to a chelating agent are compared with those of the ligand alone coupled to the DOTA chelating agent (compound AP045) and radiolabeled with the same radioelement. 8.5 Results with Compound APAG9-1 (Radiolabeled with Tc99m) The radiochemical purity is above 95%, according to the chromatographic profile obtained as described above (example 5). 12 animals were injected. The average activity injected is 3.5±2.4 MBq. 2 animals were euthanized at 2 h, 4 at 24 h and 48 h post-injection. Examples of planar image immediately post-injection and 2 hours post-injection are illustrated in FIG. 3.

[3] = cited from earlier work
[4] = 48 post-IV, animals with low urinary excretion or under hydric restriction
[5] = 2 h post-iv, animals with low urinary excretion or under hydric restriction
[6] = 4 h post-IV, animals with low urinary excretion or under hydric restriction
[7] = 24 h post-IV, animals with low urinary excretion or under hydric restriction

## CCN(CC)CCNC(=O)c1cnc2cc(NC(=O)NCCOCCOCCNC(=O)CN3CCN(CC(=O)O)CCN(CC(=O)O)CCN(CC(=O)O)CC3)ccc2n1 [AP045, reference compound]
[1]; 4 h post-IV, Indium-111-radiolabeled, IV
  Total Elimination (% del ‘Al’): 6.38E+01 % del ‘Al’
[1]; Indium-111, activity in the kidneys still high
  tumor/kidney ratio (in words): unfavorable
[2]; 48 post-IV
  Ratio (g)/Al TU/kidneys: 4.06E−01
  Ratio (g)/Al Tu/Liver: 7.14E−02
  Ratio (g)/Al Tu/Lungs: 2.97E+00
  Ratio (g)/Al Tu/blood: 9.95E+00
  Total Elimination (% del ‘Al’): 7.23E+01 % del ‘Al’
  Tumor (g/Al %): 1.19E+00 g/Al %
[2]; 4 h post-IV
  Ratio (g)/Al TU/kidneys: 2.45E−01
  Ratio (g)/Al Tu/Liver: 4.97E−02
  Ratio (g)/Al Tu/Lungs: 1.92E+00
  Ratio (g)/Al Tu/blood: 1.12E+01
  Tumor (g/Al %): 1.44E+00 g/Al %
[2]; 24 hours after IV injection, Indium-111
  tumor ratio relative to the liver: greater than 1
[2]; 24 h post-IV
  Ratio (g)/Al TU/kidneys: 2.93E−01
  Ratio (g)/Al Tu/Liver: 1.31E+00
  Ratio (g)/Al Tu/Lungs: 3.55E+00
  Total Elimination (% del ‘Al’): 90.33 % del ‘Al’
  Tumor (g/Al %): 1.77E+00 g/Al %
[2]; after IV injection of the radiolabeled compound
  time at which the maximum tumoral uptake is observed: 24 h

## CCN(CC)CCNC(=O)c1cnc2cc(NC(=O)NCCOCCOCCNC(=O)CCOCCOCCOCCOCCNC(=O)CCN(CCNC(=O)CCN(CCC(=O)NCCN(CCC(=O)NCCOCCOCCOCCOCCC(=O)NCCOCCOCCNC(=O)Nc3ccc4nc(C(=O)NCCN(CC)CC)cnc4c3)CCC(=O)NCCOCCOCCOCCOCCC(=O)NCCOCCOCCNC(=O)Nc3ccc4nc(C(=O)NCCN(CC)CC)cnc4c3)Cc3cn(CCOCCOCCOCCOCCNC(=O)CN4CCN(CC(=O)O)CCN(CC(=O)O)CCN(CC(=O)O)CC4)nn3)CCC(=O)NCCOCCOCCOCCOCCC(=O)NCCOCCOCCNC(=O)Nc3ccc4nc(C(=O)NCCN(CC)CC)cnc4c3)ccc2n1 [AP070]
[1]; notably at 4 hours, Indium-111
  tumoral uptake relative to the compound AP071: lower
[2]; [4]
  Ratio (g)/Al TU/kidneys: 5.23E−01
  Ratio (g)/Al Tu/Liver: 1.59E+00
  Ratio (g)/Al Tu/Lungs: 6.28E+00
  Ratio (g)/Al Tu/blood: 1.74E+01
  Total Elimination: 8.4E+01
  Tumor (g/Al %): 3.60E+00 g/Al %
[2]; [5]
  Ratio (g)/Al TU/kidneys: 3.6E−01
  Ratio (g)/Al Tu/Liver: 1.4E+00
  Ratio (g)/Al Tu/Lungs: 2.1E+00
  Ratio (g)/Al Tu/blood: 1.9E+00
  Total Elimination: 4.8E+01
  Tumor (g/Al %): 5.9E+00 g/Al %
[2]; 4 hours after IV injection, Indium-111
  tumoral uptake (in words): high
[2]; [6]
  Ratio (g)/Al TU/kidneys: 3.96E−01
  Ratio (g)/Al Tu/Liver: 1.28E+00
  Ratio (g)/Al Tu/Lungs: 2.93E+00
  Ratio (g)/Al Tu/blood: 3.07E+00
  Total Elimination: 2.6E+01
  Tumor (g/Al %): 1.27E+01 g/Al %
[2]; [7]
  Ratio (g)/Al TU/kidneys: 2.58E−01
  Ratio (g)/Al Tu/Liver: 4.06E−01
  Ratio (g)/Al Tu/Lungs: 3.52E+00
  Ratio (g)/Al Tu/blood: 2.00E+01
  Total Elimination: 6.8E+01
  Tumor (g/Al %): 3.69E+00 g/Al %
[2]; APAG22-1: at two hours post-IV
  tumoral uptake compared with the ligand alone (AP045): far higher
[2]; Indium-111
  tumor/liver ratio relative to the compound AP071: less favorable

## O=C([O-])CN(CCN(CC(=O)[O-])CC(=O)O)CCN(CC(=O)[O-])CC(=O)O.[Gd+3] [Gd(III)-DTPA]
[3]; 0.6 T, 20° C.
  relaxation rate r1: 5400 M⁻¹ s⁻¹

## Gadomer-17
[3]; 1.5 T and 37° C.
  r1: 15.2 mM⁻¹ s⁻¹
